Reference: paper PMC11172478, “1,3,5-Triazine as Branching Connector for the Construction of Novel Antimicrobial Peptide Dendrimers: Synthesis and Biological Characterization” (International Journal of Molecular Sciences, 2024)
Values after ≈ are worked out from the molar mass of the structure shown. Starred links: 1 amine or outer side, 2 acyl side, 3 side chain; linkers in the order of their positions; H or OH if unused. Positions of bridges follow the written chain, without caps; N, C: chain ends. Residues, ends and D or L forms follow the SMILES beside them. Chains are numbered I, II in the order given. X1 = O=C(c1ccc(Oc2nc(NCCN[*:2])nc(NCCN[*:3])n2)cc1)[*:1]

Columns and labels:
E. coli 208691 [1] = assay: Intracellular accumulation of acridine orange; assay type: cell-based; conditions: E. coli 208691, dendrimers at MIC, ½ MIC, ¼ MIC, AO 0.25 µg/mL, 30 min
Description: (§1) The assay was performed as previously described by Armengol et al. including control and clinical strains (E. coli 208691 and P. aeruginosa 666 SJD) previously studied by our group. Briefly, 96-well flat-bottomed microtiter plates (Guangzhou Jet Bio-Filtration Co., Ltd., Mianyang, China) were used. Overnight cultures were diluted in 1/4 Ringer’s solution to an OD520nm of 1.5, and 100 µL was added to the wells previously filled with 100 µL of Ringer’s solution. Acridine Orange (AO) was added to a final concentration of 0.25 µg/mL. The inoculated plates were then incubated for 30 min with shaking, after which the fluorescence was measured in a FLUOstar OPTIMA fluorescence microplate reader (BMG Labtech, Ortenberg, Germany).
(§2) To determine the uptake and accumulation of AO by bacteria, different scenarios were compared. First, bacteria were examined in the presence of PAβN at 20 µg/mL, and then in the presence of different concentrations of the dendrimers at (MIC, ½ MIC, ¼ MIC). The results in each condition were expressed as the percentage increase in fluorescence with respect to the control.

P. aeruginosa ATCC 27853 [2] = assay: Intracellular accumulation of acridine orange; assay type: cell-based; conditions: P. aeruginosa ATCC 27853, dendrimers at MIC
Description: as §1, §2

[3] = test system: Hep G2 hepatocellular carcinoma cell line; assay: Cytotoxicity, resazurin reduction; assay type: cell-based, human; conditions: HepG2 cells, 24 h, resazurin fluorescence
Description: (§3) The cytotoxicity assay was performed in the human hepatocellular carcinoma cell line Hep G2 ATCC and murine L-929 fibroblasts (NCTC clone 929, ECACC 88102702) obtained from the laboratory of Dr. Pérez-Tomás (Cancer Cell Biology, University of Barcelona). The cytotoxicity of the selected peptides was determined by measuring the intracellular reduction of resazurin sodium salt (Sigma-Aldrich, St. Louis, MO, USA). Briefly, HepG2 and L-929 cells were grown in RPMI 1640 or MEM medium, respectively (Biochrom AG, Berlin, Germany), supplemented with 10% fetal bovine serum. Cells from pre-confluent cultures were harvested with trypsin-EDTA and maintained at 37 °C in 5% CO2. Then, 100 µL of each cell line was seeded into 96-well flat-bottomed microplates and incubated for 24 h at 37 °C. The medium was then replaced with 200 μL of medium containing the dendrimers at concentrations ranging from 64 to 0.125 μg/mL and the microplates were incubated for 24 h at 37 °C. Next, 20 μL of resazurin was added to each well and the plates were incubated under the same conditions for 24 h. Fluorescence was measured using a multiwell scanning spectrophotometer at an excitation wavelength of 530 nm and an emission wavelength of 590 nm. Cytotoxicity was then calculated by comparing the fluorescence of the treated and untreated cells (Figure S22).

E. coli 208691 [4] = assay: microbe, parasite or virus in culture; assay type: cell-based; conditions: 208691, 24 h
Description: (§4) E. coli ATCC 25922, P. aeruginosa ATCC 27853, S. aureus ATCC 29213, P. aeruginosa 666 SJD (ciprofloxacin-resistant), P. aeruginosa P12, P13, P15, P16 and P17 (MDR isolates) and E. coli 7987, 5545, 8248, 13974, 7259 and 208691 (MDR isolates) from our own collection were included in the present study.
(§5) The antimicrobial activity of the dendrimers was evaluated against E. coli ATCC 25922, P. aeruginosa ATCC 27853 and S. aureus ATCC 29213 strains. The MIC values were determined by the broth microdilution method. Briefly, the different strains were grown in Muller Hinton broth cation adjusted (MHBCA) medium overnight at 37 °C with shaking at 200 rpm. The bacterial cultures were then adjusted to OD625nm of 0.08–0.1, and 5 μL of each diluted suspension was added to 96-well plates previously filled with MHBCA and serially diluted peptides. Plates were incubated for 24 h at 37 °C. Finally, the MIC was determined macroscopically, based on the visual turbidity of the wells.

E. coli 8248 = assay: microbe, parasite or virus in culture; assay type: cell-based; conditions: 8248, 24 h
Description: as §4, §5

P. aeruginosa P16 = assay: microbe, parasite or virus in culture; assay type: cell-based; conditions: P16, 24 h
Description: as §4, §5

E. coli 13974 = assay: microbe, parasite or virus in culture; assay type: cell-based; conditions: 13974, 24 h
Description: as §4, §5

L-929 fibroblasts = assay: Cytotoxicity, resazurin reduction; assay type: cell-based, murine; conditions: L-929 cells, 24 h, resazurin fluorescence
Description: as §3

P. aeruginosa ATCC 27853 [5] = assay: Time-kill curves; assay type: cell-based; conditions: P. aeruginosa ATCC 27853, ½ MIC
Description: The death kinetics of the active dendrimers were examined by plotting their time-kill curves against E. coli ATCC 25922 and P. aeruginosa ATCC 27853. The dendrimers were added to a starting bacterial inoculum of 10^6 CFU/mL in 5 mL of MHBCA medium. Dendrimers were tested at three different concentrations: MIC, ½ MIC and ¼ MIC. They were incubated for 24 h at 37 °C with shaking at 200 rpm. Samples were aseptically collected at 0, 1, 2, 4 and 6 h, serially diluted in Ringer ¼ and plated on Tryptone soy agar for colony counting.
The response of the microbial strains to the dendrimers was determined based on a logarithmic decrease in viable bacteria. A compound was considered active if it caused a reduction of ≥1 log10 CFU/mL, compared to the corresponding counts at time 0 h. In addition, a dendrimer was considered bactericidal if it caused a reduction of ≥3 log10 CFU/mL [40].

MDR P. aeruginosa = assay type: cell-based; conditions: 24 h
Description: as §4, §5

MDR E. coli = assay type: cell-based; conditions: 24 h
Description: as §4, §5

Row | SMILES | AO accumulation (in words) (E. coli 208691 [1]) | AO accumulation (in words) (P. aeruginosa ATCC 27853 [2]) | % Cytotoxicity at 64µg/mL, HepG2 [3] [%] | MIC (E. coli 208691 [4]) [µg/mL] | MIC (E. coli 8248) [µg/mL] | MIC (P. aeruginosa P16) [µg/mL] | MIC (E. coli 13974) [µg/mL] | % Cytotoxicity at 64µg/mL, L-929 (L-929 fibroblasts) [%] | time-kill activity at ½ MIC (in words) (P. aeruginosa ATCC 27853 [5]) | MIC values in MDR P. aeruginosa (span over isolates) (MDR P. aeruginosa) [µg/mL] | MIC values in MDR E. coli (span over isolates) (MDR E. coli) [µg/mL]
1 | CC(C)C[C@H](NC(=O)c1ccc(Oc2nc(NCCNC(=O)[C@H](CCCCN)NC(=O)[C@H](CC(C)C)NC(=O)[C@H](CCCCN)NC(=O)[C@H](CC(C)C)NC(=O)[C@H](CCCCN)NC(=O)[C@@H](N)CC(C)C)nc(NCCNC(=O)[C@H](CCCCN)NC(=O)[C@H](CC(C)C)NC(=O)[C@H](CCCCN)NC(=O)[C@H](CC(C)C)NC(=O)[C@H](CCCCN)NC(=O)[C@@H](N)CC(C)C)n2)cc1)C(=O)N[C@@H](CCCCN)C(=O)N[C@@H](CC(C)C)C(=O)N[C@@H](CCCCN)C(=O)N[C@@H](CC(C)C)C(=O)N[C@@H](CCCCN)C(N)=O [Dendrimer 1, H-[(LK)3]2-(EDA)2-TA-PHBA-(LK)3-NH2] (I: LKLKLK-NH2 / II: H-LKLKLK / III: H-LKLKLK; linker I:N-II:C-III:C via X1) | marked increase in AO accumulation | slight increase in AO accumulation | 0 | 32 (≈ 12.8 µM) | 8 (≈ 3.19 µM) | 64 (≈ 25.6 µM) | 8 (≈ 3.19 µM) | 2.8 |  |  | 
2 | CC(C)C[C@H](NC(=O)[C@H](CCCCN)NC(=O)[C@H](CC(C)C)NC(=O)[C@H](CCCCN)NC(=O)[C@H](CC(C)C)Nc1nc(NCCNC(=O)[C@H](CCCCN)NC(=O)[C@H](CC(C)C)NC(=O)[C@H](CCCCN)NC(=O)[C@H](CC(C)C)NC(=O)[C@H](CCCCN)NC(=O)[C@@H](N)CC(C)C)nc(NCCNC(=O)[C@H](CCCCN)NC(=O)[C@H](CC(C)C)NC(=O)[C@H](CCCCN)NC(=O)[C@H](CC(C)C)NC(=O)[C@H](CCCCN)NC(=O)[C@@H](N)CC(C)C)n1)C(=O)N[C@@H](CCCCN)C(N)=O [Dendrimer 2, H-[(LK)3-EDA]2-TA-(LK)3-NH2] |  |  | 0 | 8 (≈ 3.36 µM) | 8 (≈ 3.36 µM) | 32 (≈ 13.4 µM) | 8 (≈ 3.36 µM) | 0 | higher antimicrobial activity than dendrimer 1 | 16 to 32 | 2 to 8
